Source: patent US9232799B2, “N-[(het)arylethyl)] pyrazole(thio)carboxamides and their heterosubstituted analogues” (BAYER INTELLECTUAL PROPERTY GMBH, priority 2010, dated 2016)

How the values were obtained:
Pyrenophora teres = assay: In vivo preventive test on Pyrenophora teres (barley); conditions: 500 ppm of active ingredient, evaluated 7-9 days after inoculation
Source text: One day after this treatment, the plants are inoculated with an aqueous spore suspension of Pyrenophora teres.

Fusarium graminearum = assay: microbe, parasite or virus in culture; assay type: cell-based; conditions: for inhibition at 50 µM: Fusarium graminearum, 168 h, read-out: % Inhibition of fungal growth at 50 μM
Leptosphaeria nodorum = assay: In vivo preventive test on Leptosphaeria nodorum (wheat); conditions: 500 ppm of active ingredient, evaluated 7-9 days after inoculation
Source text: One day after this treatment, the plants are inoculated with an aqueous spore suspension of Leptosphaeria nodorum.

aflatoxines production = assay: microbe, parasite or virus in culture; assay type: cell-based, Aspergillus parasiticus; conditions: for inhibition at 50 µM: Aspergillus parasiticus, 168 h, read-out: % Inhibition of Aflatoxin at 50 μM
Alternaria solani = assay: In vivo preventive test on Alternaria solani (tomato); conditions: 500 ppm of active ingredient, evaluated 7 days after inoculation
Source text: One day after this treatment, the plants are inoculated with an aqueous spore suspension of Alternaria solani.

Sphaerotheca fuliginea = assay: In vivo preventive test on Sphaerotheca fuliginea (cucumber); conditions: 500 ppm of active ingredient, evaluated 7 days after inoculation
Source text: One day after this treatment, the plants are inoculated with an aqueous spore suspension of Sphaerotheca fuliginea.

[1] = test system: Fusarium nivale (var. majus); assay: In vivo preventive test on Fusarium nivale (wheat); conditions: 500 ppm of active ingredient, evaluated 5 days after inoculation
Source text: (§1) To test for preventive activity, young plants are sprayed with the preparation of active compound or active compound combination at the stated rate of application.

[2] = logP by HPLC on reversed-phase column (C 18), EEC Directive 79/831 Annex V.A8; assay type: physicochemical
Method: In table 1, the logP values were determined in accordance with EEC Directive 79/831 Annex V.A8 by HPLC (High Performance Liquid Chromatography) on a reversed-phase column (C 18), using the method described below: Temperature: 40° C.; […]

[3] = test system: Blumeria graminis f.sp. hordei; assay: In vivo preventive test on Blumeria graminis (barley); conditions: 500 ppm of active ingredient, evaluated 7 days after inoculation
Source text: as §1

Septoria tritici = assay: In vivo preventive test on Septoria tritici (wheat); conditions: 500 ppm of active ingredient, evaluated 21 days after inoculation
Source text: as §1

Venturia inaequalis = assay: In vivo preventive test on Venturia inaequalis (apple scab); conditions: 100 ppm of active ingredient, evaluated 10 days after inoculation
Botrytis cinerea = assay: In vivo preventive test on Botrytis cinerea (beans); conditions: preventive, beans, lesion size 2 days after inoculation
Source text: To test for preventive activity, young plants are sprayed with the preparation of active compound. After the spray coating has dried on, 2 small pieces of agar covered with growth of Botrytis cinerea are placed on each leaf.

Puccinia triticina = assay: In vivo preventive test on Puccinia triticina (wheat); conditions: dose 500 ppm of active ingredient, evaluated 8 days after inoculation

| Structure (SMILES) | Efficacy (Pyrenophora teres) | % Inhibition of fungal growth at 50 μM (Fusarium graminearum) | Efficacy (Leptosphaeria nodorum) | % Inhibition of Aflatoxin at 50 μM (aflatoxines production) | Efficacy (Alternaria solani) | Efficacy (Sphaerotheca fuliginea) | Efficacy [1] | logP [2] | Efficacy [3] | Efficacy (Septoria tritici) | Efficacy (Venturia inaequalis) | Efficacy (Botrytis cinerea; 100 ppm of active ingredient) | Efficacy (Puccinia triticina) | inhibition at 50 µM (Fusarium graminearum) | inhibition at 50 µM (aflatoxines production) | chromatographic logP [2] | pest or weed control at 100 ppm (Botrytis cinerea; Botrytis cinerea, 48 h, 100 ppm of active ingredient, read-out: Efficacy) | pest or weed control at 500 ppm (Botrytis cinerea; Botrytis cinerea, 48 h, 500 ppm of active ingredient, read-out: Efficacy) |
| --- | --- | --- | --- | --- | --- | --- | --- | --- | --- | --- | --- | --- | --- | --- | --- | --- | --- | --- |
| Cn1nc(C(F)F)c(C(=O)N(CC(F)(F)c2ccccc2Cl)C2CC2)c1F [Example 44] | 100% | 100% | 100% | 100% | 100% | 100% | 100% | 3.39 | 100% | 100% | 100% | 99% | – | – | – | – | – | – |
| Cn1nc(C(F)F)c(C(=O)N(CC(F)(F)c2ccc(Cl)cc2Cl)C2CC2)c1F [Example 86] | 100% | 98% | 100% | 100% | 100% | 100% | 93% | 3.94 | 100% | 80% | 100% | 100% | – | – | – | – | – | – |
| Cc1cc(Br)ccc1C(=O)C(C)(C)NC(=O)c1c(C(F)F)nn(C)c1F [Example 133] | 100% | 100% | 100% | 100% | 95% | 100% | 100% | 3.37 | 100% | 80% | 100% | 100% | – | – | – | – | – | – |
| CC(Cc1ccc(Oc2ccccc2)cc1)NC(=O)c1c(C(F)F)nn(C)c1F (stereo not shown) [Example 151] | 100% | 94% | 70% | 100% | 95% | 93% | 100% | 3.63 | 100% | 100% | – | – | – | – | – | – | – | – |
| CC(Cc1ncc(C(F)(F)F)cc1Cl)N(C(=O)c1c(C(F)F)nn(C)c1Cl)C1CC1 (stereo not shown) [Example 189] | 95% | 90% | – | 100% | 100% | 95% | 100% | 3.96 | 100% | 70% | – | – | 80% | – | – | – | – | – |
| CC(Cc1ncc(C(F)(F)F)cc1Cl)NC(=O)c1c(C(F)F)nn(C)c1F (stereo not shown) [Example 190, N-{1-[3-chloro-5-(trifluoromethyl)pyridin-2-yl]propan-2-yl}-3-(difluoromethyl)-5-fluoro-1-methyl-1H-pyrazole-4-carboxamide] | 100% | – | – | – | 100% | 100% | 88% | – | 100% | 100% | 100% | – | – | 100% | 100% | 3.08 | 96% | 100% |
| Cn1nc(C(F)F)c(C(=O)NC(C)(C)C(=O)c2ncc(C(F)(F)F)cc2Cl)c1F [Example 194, N-{1-[3-chloro-5-(trifluoromethyl)pyridin-2-yl]-2-methyl-1-oxopropan-2-yl}-3-(difluoromethyl)-5-fluoro-1-methyl-1H-pyrazole-4-carboxamide] | 100% | – | 90% | – | 100% | 98% | 100% | – | 100% | 100% | – | – | – | 100% | 100% | 3.23 | – | – |
| CN(C[Si](C)(C)c1ccccc1)C(=O)c1c(C(F)F)nn(C)c1F [Example 230] | 100% | 100% | 80% | 100% | 100% | – | 83% | 3.23 | 100% | 100% | – | – | 95% | – | – | – | – | – |
